Results: US6783756B2, “Methods for regulating gene expression” (Abbott GmbH & Co., KG, priority 1993, dated 2004)

Columns and labels:
tTA = molecular target: T1, tTA (Escherichia coli, UniProt P04483); experiment: Kinetics of tetracycline action on luciferase activity in X1 cells; format: cell-based, human; conditions: for Luciferase activity after addition of tetracycline, share of original value: tetracycline 1 μg/ml
T1 construct: LOCATION: 1..207; expressed in transfected cells
Protocol: FIG. 3B: Kinetics of tetracycline action. X1 cells were grown in 100 mm dishes to 80% confluency in the absence or presence (0.1 μg/ml) of tetracycline. At time 0, cells were washed with phosphate-buffered saline and split into smaller culture dishes ( 1/20th of the initial cultures per 35 mm dish). Half of the cultures remained in tetracycline-free medium (▪) and the other half were incubated in the presence of tetracycline (1 μg/ml; □). The X1 culture grown in tetracycline-containing medium was split in the same manner; one half was further incubated in the presence of tetracycline (●), whereas the other half was transferred to tetracycline-free medium (∘). At the times indicated, aliquots were harvested and examined for luciferase activity. The slight increase in luciferase activity monitored at 4 hr in the culture containing tetracycline (●) is reproducible and reflects luciferase induction during the washing step.
The time course of tetracycline action was analyzed in cultures grown in the absence or presence of tetracycline. At time 0, the antibiotic was added to the tetracycline-free cultures (final concentration, 1 μg/ml), whereas the tetracycline-containing cultures were rinsed and incubated in fresh antibiotic-free medium (FIG. 3 panel b). At various times, cells were harvested and analyzed for luciferase activity. […] A similarly rapid reduction of luciferase activity was observed when tetracycline was added to the fully active tetracycline-free system: within 8 hr activity dropped to about 10% and reached <2% of its original value after 12 hr.

HeLa cells = experiment: Growth behavior and morphology of HeLa cells in tetracycline-containing medium; format: cell-based, human
Protocol: The tTA inactivation studies were carried out with 1 μg of tetracycline per ml in the culture medium. […] Only at tetracycline concentrations well above 10 μg/ml were such changes observed upon prolonged incubation.

lacR = lacR (Escherichia coli, UniProt P03023); conditions: cited from earlier work
Chain of lacR (P03023 whole entry): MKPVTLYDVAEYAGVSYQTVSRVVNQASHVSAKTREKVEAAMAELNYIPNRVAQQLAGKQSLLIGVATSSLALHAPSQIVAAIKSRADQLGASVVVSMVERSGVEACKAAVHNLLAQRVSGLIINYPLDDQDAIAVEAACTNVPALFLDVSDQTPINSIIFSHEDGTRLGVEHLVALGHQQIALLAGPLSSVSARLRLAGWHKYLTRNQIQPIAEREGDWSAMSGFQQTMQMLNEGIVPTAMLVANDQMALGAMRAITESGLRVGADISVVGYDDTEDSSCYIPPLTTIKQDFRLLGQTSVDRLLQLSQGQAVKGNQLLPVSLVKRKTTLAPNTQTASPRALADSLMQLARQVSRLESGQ

lacR/O = conditions: eucaryotic cells; cited from earlier work
[1] = compared to Tc; cited from earlier work

T1 sequence (P04483 whole entry, added parts left off): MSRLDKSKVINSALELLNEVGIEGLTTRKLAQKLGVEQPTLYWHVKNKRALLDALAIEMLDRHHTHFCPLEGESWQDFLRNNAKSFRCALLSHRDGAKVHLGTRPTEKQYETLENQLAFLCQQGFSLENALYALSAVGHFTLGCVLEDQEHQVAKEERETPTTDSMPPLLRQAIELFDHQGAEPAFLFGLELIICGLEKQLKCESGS

Compound: CN(C)[C@@H]1C(O)=C(C(N)=O)C(=O)[C@@]2(O)C(O)=C3C(=O)c4c(O)cccc4[C@@](C)(O)[C@H]3C[C@@H]12 [tetracycline]
- Luciferase activity after addition of tetracycline, share of original value (tTA; after 12 hr): < 2%
- Luciferase activity after addition of tetracycline, share of original value (tTA; within 8 hr): about 10%
- Luciferase activity after depletion of tetracycline, share of fully induced (steady-state) level (tTA; within 12 hr after shift to tetracycline-free medium): > 20%
- Tetracycline concentration at which changes in growth behavior or morphology were observed (HeLa cells; prolonged incubation): above 10 μg/ml
- Change in growth behavior or morphology of HeLa cells (HeLa cells; tetracycline 0.1 μg/ml): no change in growth behavior or morphology

Compound: CC(C)S[C@@H]1O[C@H](CO)[C@H](O)[C@H](O)[C@H]1O [IPTG, isopropyl.β-D-thiogalactopyranoside]
- ka of lacR for IPTG (lacR): 10^6 M^−1
- Reduction of binding constant kRo by the inducer (lacR; lacR/O system): 1000 fold
- Induction by IPTG (lacR/O): only moderate induction

Compound: CN(C)[C@H]1C(O)=C(C(N)=O)C(=O)[C@@]2(O)C(O)=C3C(=O)c4c(O)cccc4[C@@](C)(O)[C@H]3[C@H](O)[C@@H]12 [epioxytetracycline]
- Antibiotic activity [1]: reduced antibiotic activity compared to Tc

Compound: Cc1c2c(c(O)c3c(O)cccc13)C(=O)[C@]1(O)C(=O)C(C(N)=O)=C(O)[C@@H](N(C)C)[C@@H]1C2 [anhydrotetracycline]
- Antibiotic activity [1]: reduced antibiotic activity compared to Tc
